{"source": "patent US20100168038A1", "about": "“USE OF COMPOUNDS IN COMBINATION WITH GAMMA-IRRADIATION FOR THE TREATMENT OF CANCER” (priority 2006, published 2010)", "key": {"Stability in serum": {"assay": "Stability in serum", "assay_type": "in vitro ADME"}, "[1]": {"test_system": "HeLa cells (human cervical carcinoma)", "assay": "Tumor growth of HeLa cells in CB.17 SCID mice, Z-GLA-OH with gamma-irradiation", "assay_type": "in vivo", "conditions": "Z-GLA-OH + gamma-irradiation 1.5 Gy/dose"}, "DBA/2-c-Myc/Bcl-xL cells": {"test_system": "DBA/2-c-Myc/Bcl-xL cells", "assay": "Tumor growth of DBA/2-c-Myc/Bcl-xL cells in DBA/2 mice", "assay_type": "in vivo, mouse", "text": "(§1) Tumor Growth Experiments. Tumor cells were washed in PBS and resuspended in a volume of 200 micro-l per inoculate. The cells were then inoculated into the right flank at 10^6 per mouse and growth of the tumor was monitored by measurement two times per week. The initiation of anti-tumor treatment of the mice was to some extent individualized according to when tumor growth started in each mouse. The mice were irradiated with 4 Gy prior to tumor inoculation in order to inhibit anti-tumor immune responses. The tumor volume was calculated as the mean volume in mice with tumors growth, according to (a1×a2×a3)/2 (the numbers ai denote tumor diameter, width and depth). The time of first palpation varied between different mice, although the general pattern of growth was similar in virtually all of the mice. In most diagrams a log-scale is used to better visualize the therapeutic effects against small tumors, i.e. the presence of complete rejections. For inhibition of TPPII in vivo we made intraperitoneal injections with 13.8 mg per kg of body weight (14 micro-l of a 50 mM solution/mouse) of the Subtilisin inhibitor Z-Gly-Leu-Ala-OH (Z-GLA-OH, Bachem, Weil am Rhein, Germany) twice per week, diluted into 200 micro-l PBS. All gamma-irradiations were full body exposures.\nRetroviral transduction and transplantation. […]\nDetection of GFP and YFP expression was performed using a Cyan™ ADP cytometer (Dako, Glostrup, Denmark) where after excitation at 488 nm, a 525-nm long-pass dichroic mirror was used to initially separate the signals followed by a 510/21-nm bandpass filter for detection of EGFP and a 550/30-nm band pass filter for EYFP. Data were analyzed using FlowJo software (Tree Star, Inc., San Carlos, Calif.). […]"}, "[2]": {"assay": "Toxicity study in vivo, single agent", "conditions": "doses up to 100 mg/kg, preliminary study"}, "[3]": {"test_system": "Lewis Lung Carcinoma (LLC) cells", "assay": "Tumor growth of Lewis Lung Carcinoma (LLC) in mice, compound with or without gamma-irradiation", "assay_type": "in vivo, mouse", "conditions": "for tumor volume / tumor volume, mean: LLC; for tumor volume: single mouse; for tumor volume, mean: group mean", "text": "as §1\nTable 2 contains in vivo data, showing tumor volume in mm^3, in groups of 4 mice with LLC (Lewis Lung Carcinoma). Mice were sacrificed if the tumor volume exceeded 1000 mm^3. Some mice were administered with the compounds alone; others were additionally administered with irradiation. Mice were given the compounds, and in some cases also gamma irradition (400 Rad), at days 7, 10, 14, 18 and 21."}, "[4]": {"conditions": "compound + gamma irradiation (400 Rad), day 10"}, "[5]": {"conditions": "compound + gamma irradiation (400 Rad), day 14"}, "[6]": {"conditions": "compound + gamma irradiation (400 Rad), day 18"}, "[7]": {"conditions": "compound + gamma irradiation (400 Rad), day 21"}}, "note": "Several values for one entry are separate records, joined by “and”; a condition that tells them apart may be missing. Identical values can stand only once. Residues, ends and D or L forms follow the SMILES beside them.", "data": [{"smiles": "CC(C)C[C@H](NC(=O)CNC(=O)OCc1ccccc1)C(=O)N[C@@H](C)C(=O)O", "note": "[Z-GLA-OH, Z-Gly-Leu-Ala-OH] (HELM PEPTIDE1{[O=C(OCc1ccccc1)[*:2]].G.L.A}$$$$V2.0)", "values": [{"measurement": "stability in serum", "setting": "Stability in serum", "value": "relatively stable in serum"}, {"measurement": "tumor response", "setting": "[1]", "value": "strong tumor regression"}, {"measurement": "tumor cells in lung, spleen or liver", "setting": "DBA/2-c-Myc/Bcl-xL cells; Z-GLA-OH 13.8 mg/kg + gamma-irradiation, flow cytometry, histology", "value": "failed to find tumor cells"}, {"measurement": "tumor response", "setting": "DBA/2-c-Myc/Bcl-xL cells; Z-GLA-OH only, no gamma-irradiation", "value": "no reduction of tumor size"}, {"measurement": "tumor response", "setting": "DBA/2-c-Myc/Bcl-xL cells; established DBA/2-c-Myc/Bcl-xL tumors, Z-GLA-OH 13.8 mg/kg + 4 Gy doses of gamma-irradiation", "value": "complete tumor regression"}, {"measurement": "toxicity in vivo", "setting": "[2]", "value": "minor effects"}, {"measurement": "tumor volume", "setting": "[3]; compound + gamma irradiation (400 Rad) at days 7, 10, 14, 18, 21, day 7", "value": "4.0 mm^3 and 6.0 mm^3 (2×) and 0.0 mm^3"}, {"measurement": "tumor volume, mean", "setting": "[3]; compound + gamma irradiation (400 Rad), day 7", "value": 4.00, "unit": "mm^3"}, {"measurement": "tumor volume, mean", "setting": "[3]; [4]", "value": 64.00, "unit": "mm^3"}, {"measurement": "tumor volume", "setting": "[3]; [4]", "value": "48.0 mm^3 and 128.0 mm^3 and 40.0 mm^3 (2×)"}, {"measurement": "tumor volume, mean", "setting": "[3]; [5]", "value": 84.00, "unit": "mm^3"}, {"measurement": "tumor volume", "setting": "[3]; [5]", "value": "72.0 mm^3 (2×) and 144.0 mm^3 and 48.0 mm^3"}, {"measurement": "tumor volume, mean", "setting": "[3]; [6]", "value": 25.38, "unit": "mm^3"}, {"measurement": "tumor volume", "setting": "[3]; [6]", "value": "32 mm^3 (2×) and 24 mm^3 and 13.5 mm^3"}, {"measurement": "tumor volume, mean", "setting": "[3]; [7]", "value": 7.00, "unit": "mm^3"}, {"measurement": "tumor volume", "setting": "[3]; [7]", "value": "13.5 mm^3 (2×) and 0.5 mm^3 (2×)"}, {"measurement": "tumor volume, mean", "setting": "[3]; compound alone, day 7", "value": 5.88, "unit": "mm^3"}, {"measurement": "tumor volume", "setting": "[3]; compound alone, day 7 after tumor inoculation", "value": "4.0 mm^3 and 0.0 mm^3 and 6.0 mm^3 and 13.5 mm^3"}, {"measurement": "tumor volume, mean", "setting": "[3]; compound alone, day 10", "value": 150.25, "unit": "mm^3"}, {"measurement": "tumor volume", "setting": "[3]; compound alone, day 10", "value": "256.0 mm^3 and 192.0 mm^3 and 9.0 mm^3 and 144.0 mm^3"}, {"measurement": "tumor volume, mean", "setting": "[3]; compound alone, day 14", "value": 748, "unit": "mm^3"}, {"measurement": "tumor volume", "setting": "[3]; compound alone, day 14", "value": "660.0 mm^3 and 864.0 mm^3 and 720.0 mm^3"}, {"measurement": "tumor volume, mean", "setting": "[3]; compound alone, day 18", "value": 1300.67, "unit": "mm^3"}, {"measurement": "tumor volume", "setting": "[3]; compound alone, day 18", "value": "864 mm^3 and 1470 mm^3 and 1568 mm^3"}, {"measurement": "tumor volume", "setting": "[3]; compound alone, day 21", "value": 2048.0, "unit": "mm^3"}, {"measurement": "effect on LLC tumors", "setting": "[3]; Z-GLA-OH only, in the absence of gamma-irradiation", "value": "no effect"}, {"measurement": "tumor response", "setting": "[3]; established LLC tumors, gamma-irradiation 4 Gy doses + Z-GLA-OH injection", "value": "complete regression"}]}]}
